Columns and labels:
[1] = tested on: MOG-induced mouse experimental autoimmune encephalomyelitis model; test: MOG-induced mouse experimental autoimmune encephalomyelitis model, 30 mg/kg; assay type: in vivo; conditions: C57BL/6J mouse, MOG 35-55; 30 mg/kg orally twice daily for 16 days from three days before inoculation; scored 13 days after inoculation
Procedure: The action of the cyclohexane derivative (I) or the pharmaceutically acceptable salt thereof against an increase in the neurological symptom score in a MOG-induced mouse experimental autoimmune encephalomyelitis model was evaluated. The mouse experimental autoimmune encephalomyelitis model was prepared according to the method described in Journal of Neuroscience Research, 2006, Vol. 84, pp. 1225-1234 with partial modification. A MOG 35-55 administration solution, which was prepared by mixing equal volumes of a PBS solution containing a partially synthesized peptide of MOG (MOG 35-55; CS Bio Company Inc.) whose concentration was adjusted to 4 mg/mL and Freund's complete adjuvant, was intracutaneously inoculated to both lateral regions of each C57BL/6J mouse (male, 7-weeks old) (Charles River Laboratories Japan) in a total amount of 0.1 mL (0.05 mL per side). Further, on the day of inoculation of the MOG 35-55 administration solution, and two days thereafter, 200 μL of pertussis toxin (Sigma) whose concentration was adjusted to 1 μg/mL was intraperitoneally administered to each mouse. From three days before inoculation of the MOG 35-55 administration solution, Compound 3 was orally administered to mice twice daily at a dose of 30 mg/kg for 16 successive days. Compound 3 was used as a suspension in 0.5% methylcellulose solution. The group in which Compound 3 was administered to mice was provided as the Compound 3 administration group. To provide a vehicle administration group, 0.5% methylcellulose solution was administered in the same manner. Thirteen days after inoculation of the MOG 35-55 administration solution, the neurological symptom score was scored (0: normal, 1: limp tail or hind limb weakness, 2: limp tail and hind limb weakness, 3: partial hind limb paralysis, 4: complete hind limb paralysis, 5: moribund state). […] Comparative Control Compound 1 and Comparative Control Compound 2 were similarly evaluated. […] Thirteen days after inoculation of the MOG 35-55 administration solution, the neurological symptom score was scored.

[2] = tested on: MOG-induced mouse experimental autoimmune encephalomyelitis model; test: MOG-induced mouse experimental autoimmune encephalomyelitis model, 3 mg/kg and 10 mg/kg; assay type: in vivo; conditions: C57BL/6J mouse, MOG 35-55, scored 14 days after inoculation
Procedure: Action of the cyclohexane derivative (I) or the pharmaceutically acceptable salt thereof against an increase in the neurological symptom score in a MOG-induced mouse experimental autoimmune encephalomyelitis model was evaluated. A MOG 35-55 administration solution, which was prepared by mixing equal volumes of a PBS solution containing a partially synthesized peptide of MOG (MOG 35-55; CS Bio Company Inc.) whose concentration was adjusted to 4 mg/mL and Freund's complete adjuvant, was intracutaneously inoculated to both lateral regions of each C57BL/6J mouse (male, 10-weeks old) (Charles River Laboratories Japan) in a total amount of 0.1 mL (0.05 mL per side). Further, on the day of inoculation of the MOG 35-55 administration solution, and two days thereafter, 200 μL of pertussis toxin (Sigma) whose concentration was adjusted to 1 μg/mL was intraperitoneally administered to each mouse. As a test compound, Compound 3 was used. […] Fourteen days after inoculation of the MOG 35-55 administration solution, the neurological symptom score was scored (0: normal, 1: limp tail or hind limb weakness, 2: limp tail and hind limb weakness, 3: partial hind limb paralysis, 4: complete hind limb paralysis, 5: moribund state). […]

[3] = tested on: PLP-induced mouse experimental autoimmune encephalomyelitis model; test: PLP-induced mouse experimental autoimmune encephalomyelitis model; assay type: in vivo; conditions: SJL mouse, PLP 139-151; 10 mg/kg orally twice daily for 7 days from two days after inoculation; scored 9 days after inoculation
Procedure: Action of the cyclohexane derivative (I) or the pharmaceutically acceptable salt thereof against an increase in the neurological symptom score in a PLP-induced mouse experimental autoimmune encephalomyelitis model was evaluated. The mouse experimental autoimmune encephalomyelitis model was prepared according to the method described in International Immunology, 1997, Vol. 9, pp. 1243-1251 with partial modification. A PLP 139-151 administration solution, which was prepared by mixing equal volumes of a PBS solution containing a partially synthesized peptide of PLP (PLP 139-151; Kokusan Chemical Co., Ltd.) whose concentration was adjusted to 2 mg/mL and Freund's complete adjuvant, was intracutaneously inoculated to both lateral regions of each SJL mouse (female, 6-weeks old) (Charles River Laboratories Japan) in a total amount of 0.1 mL (0.05 mL per side). Further, on the day of inoculation of the PLP 139-151 administration solution, and two days thereafter, 200 μL of pertussis toxin (Sigma) whose concentration was adjusted to 1 μg/mL was intraperitoneally administered to each mouse. […] Nine days after inoculation of the PLP 139-151 administration solution, the neurological symptom score was scored (0: normal, 1: limp tail or hind limb weakness, 2: limp tail and hind limb weakness, 3: partial hind limb paralysis, 4: complete hind limb paralysis, 5: moribund state). […]

[4] = target: T1, thrombin (Homo sapiens, UniProt P00734); test: Thrombin activity assay (SensoLyte 520 kit, FRET); assay type: biochemical; conditions: at the maximum concentration, 30 μmol/L; read-out: thrombin activity inhibition rate
T1 construct: purchased Anaspec Inc
Procedure: The action of the cyclohexane derivative (I) or the pharmaceutically acceptable salt thereof on the thrombin activity was evaluated using a SensoLyte (registered trademark) 520 thrombin activity assay kit manufactured by Anaspec Inc., which utilizes fluorescence resonance energy transfer (FRET).
The test compound was dissolved in dimethylsulfoxide (hereinafter referred to as DMSO), and diluted with the assay buffer included in the kit to a final DMSO concentration of 0.5 to 1%. […] Thereafter, the fluorescence value was measured by excitation at 485 nm and detection at 520 nm.
The thrombin activity inhibition rate (%) was calculated according to Equation 1, and regression analysis was carried out to obtain a sigmoid curve (variable slope), thereby calculating the IC50 value of the thrombin activity inhibition by the test compound: Thrombin activity inhibition rate (%)=(1−((fluorescence value in the presence of both thrombin and the test compound)−(fluorescence value in the absence of both thrombin and the test compound))/((fluorescence value in the presence of thrombin and absence of the test compound)−(fluorescence value in the absence of both thrombin and the test compound)))×100 Equation 1.

SMILES | rate of suppression of exacerbation of neurological symptoms [1] [%] | rate of suppression of exacerbation of neurological symptoms ([2]; 3 mg/kg orally twice daily for 12 days from two days after inoculation) [%] | rate of suppression of exacerbation of neurological symptoms ([2]; 10 mg/kg orally twice daily for 12 days from two days after inoculation) [%] | rate of suppression of exacerbation of neurological symptoms [3] [%] | inhibition at 30 µM [4] [%]
COc1ccc(-n2nc(C3(O)CCC(O)CC3)cc2-c2ccccc2C)cc1 (stereo not shown) [Comparative Control Compound 2] | 6.5 | – | – | – | –
COc1ccc(-n2nc(C3(O)CCC(O)CC3)cc2-c2ccc(C)cc2)cc1 (stereo not drawn) [Compound 3, 1-(1-(4-methoxyphenyl)-5-(p-tolyl)-1H-pyrazol-3-yl)cyclohexane-cis-1,4-diol] | 85.7 | 53.8 | 61.5 | 66.4 | 17.2
COc1ccc(-n2nc(C3(O)CCNCC3)cc2-c2ccc(C)cc2)cc1 [Comparative Control Compound 1] | 3.3 | – | – | – | –

From patent US10130608B2, “Methods of treating or preventing multiple sclerosis” (Toray Industries, Inc., priority 2014, dated 2018)
